The text below walks through data of patent US10604514B2, “6-(5-membered heteroaryl)isoquinolin-3-yl carboxamides and preparation and use thereof” (Samumed, LLC, priority 2017, dated 2020).

Like-named read-outs stand apart in the source and are kept apart here.

Assay [1] concerns Wnt activity (Sp5-Luc reporter in SW480 colon carcinoma cells). The assay is described as follows: Wnt activity screening assay (Sp5-Luc reporter gene assay). To be noted: Homo sapiens; for EC50: Sp5-Luc reporter, SW480 cells, 36 to 48 hours; for inhibition at 10 µM: SW480, read-out: percent inhibition at 10 μM. It is filed as cell-based, human. The gist of the method:
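Compounds at 10 points (1:3 steps, top 10 μM, 0.1% DMSO final) were incubated 36 to 48 h at 37° C with stable Sp5-Luc SW480 reporter cells in 1% FBS medium. Luciferase luminescence was then read and expressed relative to DMSO-only cells. Four-parameter variable-slope fitting yielded EC50 values.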
For orientation: A reporter such as luciferase makes a cellular process visible.

Assay [2] deals with GSK3β kinase (Homo sapiens (Human), UniProt P49841). Description: GSK3β kinase assay (Ser/Thr 09 peptide Z-lyte, FRET).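 Also: Coumarin/fluorescein emission ratio converted to percent phosphorylation against unphosphorylated (0%) and phosphorylated (100%) controls, 1 h compound incubation at room temperature, 11-point threefold dilutions from 10 µM, run in duplicate.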 Conditions: method text calls the value IC50. It is filed as biochemical.
The subject of assay [3] is Tau phosphorylation at Ser396 (pSer396), SH-SY5Y cells. Description: Tau phosphorylation at Ser396 (pSer396) in SH-SY5Y cells, ELISA/western blot.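 Also: cell lysates probed for reduced Tau pSer396 via ELISA (colorimetric) or western blot (chemiluminescence), both with one shared pSer396 antibody, EC50 for lowering phosphorylation.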 The class given is cell-based, human. Conditions: Homo sapiens; SH-SY5Y cells, overnight (16-18 h); read-out: pSer396 Tau EC50. (In general: In an ELISA, binding on a coated surface is turned into a signal by an enzyme label.)

Assay [4] deals with SW480 colon carcinoma cells. Description: Cell viability assay (CellTiter-Glo) in SW480 cells.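 As to all read-outs here: SW480 cells stably carrying an Sp5-luciferase TCF/LEF reporter, luminescent ATP signal as viability measure, DMSO-treated cells as control.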 The class given is cell-based, human. To be noted: Homo sapiens; for EC50: 96 h, cell viability, SW480 cells, four days, CellTiter-Glo; for inhibition at 10 µM: SW480, read-out: percent inhibition at 10 μM.
For assay [5], the system named is LL29 cells (primary human fibroblasts derived from IPF patients), α-smooth muscle actin. The assay is described as follows: Inhibition of fibrotic process: αSMA in TGF-β1-treated primary human fibroblasts from IPF patients (LL29 cells). It is filed as cell-based. To be noted: Homo sapiens, Fibroblast; for EC50: 96 h, % αSMA-positive LL29 cells, TGF-β1 20 ng/mL, 4 days. The gist of the method: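 Read-out is the percentage of αSMA-positive cells by high-content imaging, excluding SYTOX green-positive dead/apoptotic cells, normalized to TGF-β1-only wells on the same plate. LL29 cells were exposed for 4 days at 37 °C to 20 ng/mL TGF-β1 plus 11-point, 2-fold compound dilutions in 0.1% DMSO.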

The subject of assay [6] is IL-6. Description: IL-6 inhibition in LPS-stimulated human peripheral blood mononuclear cells (HTRF). The class given is cell-based. To be noted: Homo sapiens, PBMC; for EC50: IL-6, LPS-stimulated huPBMCs, HTRF; for inhibition at 10 µM: read-out: percent value in parentheses below EC50 >10. The gist of the method:
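EC50 from a 4-parameter fit of DMSO-normalized HTRF (665/620 nm) IL-6 signal, duplicates. Compound was added to fresh human PBMCs in 1% FBS RPMI for 2 h (top 10 μM, 3-fold, 0.25% DMSO) before 22 h stimulation with LPS at 50 ng/mL, 37 °C.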
Background: TR-FRET usually uses a lanthanide donor and a delayed reading to cut background.

In assay [7] the target is DYRK1A kinase (Homo sapiens (Human), UniProt Q13627). The assay is described as follows: DYRK1A kinase assay (Ser/Thr 18 peptide Z-lyte, FRET).
Procedure: Each compound was dissolved in DMSO as a 10 mM stock and used to prepare compound source plates.
This is a non-radioactive assay using fluorescence resonance energy transfer (FRET) between coumarin and fluorescein to detect kinase activity which is represented as a ratio of coumarin emission/fluorescein emission.
The mixture was allowed to incubate with the representative compounds for one hour at room temperature. All reactions were performed in duplicate. Unphosphorylated (“0% Control”) and phosphorylated (“100% control”) forms of Ser/Thr 18 served as control reactions. Additionally, an 11-point dose-response curve of Staurosporine (1 uM top) was run to serve as a positive compound control.
After incubation, Development Reagent A was diluted in Development Buffer then added to the reaction and allowed to further incubate for one hour at room temperature.
The percent phosphorylation was then calculated using the following formula: [1−((Em ratio×F100%)−C100%)/((C0%−C100%)+(Em ratio×(F100%−F0%)))]. Dose-response curves were generated and inhibitory concentration (IC50) values were calculated using non-linear regression curve fit in the Dotmatics' Studies Software (Bishops Stortford, UK).
Where [8] appears, read: DYRK1A kinase, method text calls the value IC50.

Sequence of GSK3β kinase (P49841 whole entry): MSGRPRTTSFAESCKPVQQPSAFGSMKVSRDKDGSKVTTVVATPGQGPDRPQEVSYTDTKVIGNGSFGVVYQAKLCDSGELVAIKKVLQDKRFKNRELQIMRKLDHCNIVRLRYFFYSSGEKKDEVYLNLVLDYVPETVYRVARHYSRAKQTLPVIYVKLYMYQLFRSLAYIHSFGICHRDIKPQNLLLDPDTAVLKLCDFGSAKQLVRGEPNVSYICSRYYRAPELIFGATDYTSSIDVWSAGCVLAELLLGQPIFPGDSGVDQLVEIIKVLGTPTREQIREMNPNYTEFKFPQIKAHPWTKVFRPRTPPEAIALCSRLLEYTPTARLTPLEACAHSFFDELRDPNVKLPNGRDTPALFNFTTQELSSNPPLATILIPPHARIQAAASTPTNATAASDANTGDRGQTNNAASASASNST

In the case of `CN(C)C1CCN(C(=O)Nc2cc3cc(-c4cnn(C)c4)ccc3cn2)CC1` [Compound 63, 4-(Dimethylamino)-N-(6-(1-methyl-1H-pyrazol-4-yl)isoquinolin-3-yl) piperidine-1-carboxamide], the EC50 (usually the concentration that produces a half-maximal response) in assay [1] stood at 657 nM; in assay [2], 473 nM; in assay [3] it was 3100 nM; in assay [4] it was 2570 nM; in assay [5], 1280 nM; in assay [6] it was 4800 nM. The molecule also returned a 50% effective concentration (EC50) in assay [7] (setting [8]) of 17 nM.

As for `Cn1cc(-c2ccc3cnc(NC(=O)N4CCOCC4)cc3c2)cn1` [Compound 64, N-(6-(1-Methyl-1H-pyrazol-4-yl)isoquinolin-3-yl)morpholine-4-carboxamide], the EC50 in assay [1] stood at 434 nM; in assay [2], 530 nM; in assay [3], 2900 nM; in assay [4], 3530 nM; in assay [5], 683 nM; in assay [6], 4630 nM. The EC50 in assay [7] (setting [8]) stood at 8 nM.

`CC(C)N1CCN(C(=O)Nc2cc3cc(-c4cnn(C)c4)ccc3cn2)CC1` [Compound 65, 4-isopropyl-N-(6-(1-methyl-1H-pyrazol-4-yl)isoquinolin-3-yl)piperazine-1-carboxamide]: the EC50 in assay [1] was 725 nM; in assay [2] it was 2840 nM; in assay [3] it was greater than 10000 nM; in assay [4] it was greater than 10000 nM; in assay [5] it was 2350 nM; in assay [6], greater than 10000 nM. In assay [7] (setting [8]), the EC50 stood at 70 nM. Also, the inhibition at 10 µM was 7.3% in assay [4] and 4.8% in assay [6].

For the molecule `[2H]c1c(NC(=O)C2CCN(C)CC2)ncc2ccc(-c3cnn(C)c3)cc12` [Compound 66, 1-Methyl-N-(6-(1-methyl-1H-pyrazol-4-yl)isoquinolin-3-yl-4-d)piperidine-4-carboxamide], the half-maximal effective concentration (EC50) in assay [1] is 1190 nM; in assay [2], 53 nM; in assay [3], 168 nM; in assay [4], 1220 nM; in assay [5], 160 nM; in assay [6], 997 nM. Further, a half-maximal response in assay [7] (EC50) required 3 nM.

Take `[2H]c1c(NC(=O)CN2CCOCC2)ncc2ccc(-c3cnn(C)c3)cc12` [Compound 68, N-(6-(1-Methyl-1H-pyrazol-4-yl)isoquinolin-3-yl-4-d)-2-morpholinoacetamide]: the concentration for a half-maximal effect (EC50) in assay [1] was 6950 nM; in assay [2], 66 nM; in assay [3], 948 nM; in assay [4], greater than 10000 nM; in assay [5], 1520 nM; in assay [6], 4060 nM. Besides, the EC50 in assay [7] amounted to 7 nM. In assay [4], the inhibition at 10 µM amounted to 47.2%.

For the molecule `Cc1ncc(-c2ccc3cnc(NC(=O)[C@H]4CC[C@H](CN5CCOCC5)CC4)cc3c2)o1` [Compound 69, trans-N-(6-(2-methyloxazol-5-yl)isoquinolin-3-yl)-4-(morpholinomethyl)cyclohexane-1-carboxamide], the concentration giving a half-maximal response (EC50) in assay [1] was found to be 927 nM; in assay [2] it was 70 nM; in assay [3] it was 516 nM; in assay [4], 1700 nM; in assay [5], 210 nM; in assay [6] it was 1020 nM. Moreover, a half-maximal response in assay [7] (setting [8]) (EC50) required 3 nM.

For the molecule `Cc1ncc(-c2ccc3cnc(NC(=O)[C@H]4CC[C@H](CN5CCN(C)CC5)CC4)cc3c2)o1` [Compound 70, trans-N-(6-(2-Methyloxazol-5-yl)isoquinolin-3-yl)-4-((4-methylpiperazin-1-yl)methyl)cyclohexane-1-carboxamide], the half-maximal effective concentration (EC50) in assay [1] was determined as 1110 nM; in assay [2], 73 nM; in assay [3], 307 nM; in assay [4], 1720 nM; in assay [5], 124 nM; in assay [6] it was 952 nM. Moreover, in assay [7] (setting [8]), the EC50 was 2 nM.

Regarding `Cc1nnc(-c2ccc3cnc(NC(=O)N[C@H]4CCN(C)C[C@@H]4F)cc3c2)s1` [Compound 71, 1-((3S,4S)-3-Fluoro-1-methylpiperidin-4-yl)-3-(6-(5-methyl-1,3,4-thiadiazol-2-yl)isoquinolin-3-yl)urea], the inhibition at 10 µM in assay [1] is 45.6%; in assay [4], 46.7%. The 50% effective concentration (EC50) is greater than 10000 nM in assay [1]; 14 nM in assay [2]; 250 nM in assay [3]; greater than 10000 nM in assay [4]; 4660 nM in assay [5]; 9370 nM in assay [6]. In assay [7] (setting [8]), this molecule showed an EC50 of 6 nM.

`[2H]C1([2H])N(c2cc(C(=O)Nc3cc4cc(-c5cnc(C)n5C)ccc4cn3)ccn2)C([2H])([2H])C([2H])([2H])C([2H])([2H])C1([2H])[2H]` [Compound 72, N-(6-(1,2-Dimethyl-1H-imidazol-5-yl)isoquinolin-3-yl)-2-(piperidin-1-yl-d10)isonicotinamide]: the half-maximal effective concentration (EC50) was 3310 nM in assay [1]; greater than 10000 nM in assay [2]; 2600 nM in assay [3]; 489 nM in assay [4]; 937 nM in assay [5]; 1580 nM in assay [6]. Further, the concentration giving a half-maximal response (EC50) in assay [7] came out at 3 nM.

Consider `[2H]c1c([2H])c([2H])c(C(=O)Nc2cc3cc(-c4cncn4C)ccc3cn2)c(F)c1[2H]` [Compound 80], for which the half-maximal effective concentration (EC50) in assay [1] is 743 nM; in assay [2] it was 2580 nM; in assay [3] it was greater than 10000 nM; in assay [4] it was 1600 nM; in assay [5], 2710 nM; in assay [6], 7640 nM. In assay [7], this molecule had an EC50 of 3 nM.

As for `[2H]c1c([2H])c([2H])c(C(=O)Nc2cc3cc(-c4cncn4C)ccc3cn2)c(Cl)c1[2H]` [Compound 82], the results for the inhibition at 10 µM in assay [1], in assay [5] (read-out: percent inhibition at 10 μM) and in assay [6] were 29.6%, 31.2% and 47.6%, respectively. Moreover, the 50% effective concentration (EC50) in assay [1] was greater than 10000 nM; in assay [2] it was 1510 nM; in assay [3] it was 5900 nM; in assay [4], 3310 nM; in assay [5], greater than 10000 nM; in assay [6], greater than 10000 nM. For the same molecule, the EC50 in assay [7] turned out to be 3 nM.

Turning to `[2H]c1c([2H])c(C(=O)Nc2cc3cc(-c4cncn4C)ccc3cn2)c([2H])c([2H])c1Cl` [Compound 83, 4-Chloro-N-(6-(1-methyl-1H-imidazol-5-yl)isoquinolin-3-yl)benzamide-2,3,5,6-d4], in assay [1], the inhibition at 10 µM turned out to be 29.7%. The concentration for a half-maximal effect (EC50) in assay [1] is greater than 10000 nM; in assay [2] it was 874 nM; in assay [3], greater than 10000 nM; in assay [4] it was 305 nM; in assay [5], 483 nM; in assay [6], 1130 nM. In assay [7], this molecule returned a 50% effective concentration (EC50) of 2 nM.

As to `[2H]C([2H])([2H])c1ccc(C(=O)Nc2cc3cc(-c4cncn4C)ccc3cn2)cc1` [Compound 84, 4-(Methyl-d3)-N-(6-(1-methyl-1H-imidazol-5-yl)isoquinolin-3-yl)benzamide], the inhibition at 10 µM in assay [1] came out at 25.5%. The half-maximal effective concentration (EC50) in assay [1] is greater than 10000 nM; in assay [2], 1050 nM; in assay [3] it was 1400 nM; in assay [4], 494 nM; in assay [5], 630 nM; in assay [6], 1300 nM. This molecule returned a concentration for a half-maximal effect (EC50) in assay [7] of 2 nM.

Turning to `[2H]c1c([2H])c(C(=O)Nc2cc3cc(-c4cncn4C)ccc3cn2)c([2H])c([2H])c1C` [Compound 85, 4-Methyl-N-(6-(1-methyl-1H-imidazol-5-yl)isoquinolin-3-yl)benzamide-2,3,5,6-d4], the EC50 in assay [1] is 233 nM; in assay [2], 847 nM; in assay [3], 1400 nM; in assay [4] it was 487 nM; in assay [5] it was 557 nM; in assay [6], 1220 nM. The EC50 in assay [7] came out at 2 nM.

For the molecule `[2H]c1c([2H])c(C([2H])([2H])[2H])c([2H])c([2H])c1C(=O)Nc1cc2cc(-c3cncn3C)ccc2cn1` [Compound 86, 4-(Methyl-d3)-N-(6-(1-methyl-1H-imidazol-5-yl)isoquinolin-3-yl) benzamide-2,3,5,6-d4], the 50% effective concentration (EC50) came to 350 nM in assay [1]; 1740 nM in assay [2]; 3040 nM in assay [3]; 515 nM in assay [4]; 556 nM in assay [5]; 2170 nM in assay [6]. Moreover, a half-maximal effect in assay [7] (EC50) was put at 2 nM.

For `[2H]C([2H])([2H])Oc1ccc(C(=O)Nc2cc3cc(-c4cncn4C)ccc3cn2)cc1` [Compound 87, 4-(Methoxy-d3)-N-(6-(1-methyl-1H-imidazol-5-yl)isoquinolin-3-yl) benzamide], the EC50 amounted to 214 nM in assay [1]; 1450 nM in assay [2]; 896 nM in assay [3]; 489 nM in assay [4]; 132 nM in assay [5]; 1170 nM in assay [6]. The EC50 in assay [7] worked out at 3 nM.
